Test results taken from patent US6562870B1 (priority 1994, dated 2003).
Where two headings read alike, the source gives them in different places.

How the values were obtained:
[1] = test system: AS283 cells
Experimental: (§1) Both human tumor cell lines were maintained in RPMI 1640 medium plus 10% fetal calf serum. They were seeded in 15-ml rubber-stoppered vials containing 2 μCi of (^14C) glucose and 2 ml of tissue culture media. […] On days 6, 9 and 12, the vials were removed from the incubator and evaluated radiometrically for the amount of ^14CO2 produced. Inhibition of conversion of (^14C) glucose to ^14CO2 is a reliable index of cytotoxicity (Von Hoff et al., Cancer Res. 45:4032-4038, 1985).

[2] = test system: Raji line lymphoblast-like cells
Experimental: as §1

[3] = test system: AIDS-associated NHL
Experimental: The daily dose is diluted in 1000 cc of 0.9% Sodium Chloride Injection, USP, or 5% Dextrose Injection, USP, for infusion over 24 hours.

[4] = stability of diluted infusion solutions; format: physicochemical; conditions: in 0.9% Sodium Chloride Injection or 5% Dextrose Injection
[5] = test system: advanced NHL; conditions: cited from earlier work
[6] = in vivo; cited from earlier work

Structure (SMILES): O=[N+]([O-])[O-].O=[N+]([O-])[O-].O=[N+]([O-])[O-].[Ga+3] [Gallium Nitrate, gallium nitrate]
- % SURVIVAL AS283 ([1]; final concentration 1 mcg/ml): 99%
- % SURVIVAL AS283 ([1]; final concentration 10 mcg/ml): 122%
- % SURVIVAL AS283 ([1]; final concentration 50 mcg/ml): 58%
- % SURVIVAL AS283 ([1]; final concentration 100 mcg/ml): 0%
- % SURVIVAL RAJI ([2]; final concentration 1 mcg/ml): 102%
- % SURVIVAL RAJI ([2]; final concentration 10 mcg/ml): 114%
- % SURVIVAL RAJI ([2]; final concentration 100 mcg/ml): 33%
- drug-related adverse effects ([3]; 300 mg/sq m/day for 7 days iv, two courses): not accompanied by apparent drug-related adverse effects
- size of nodes after first course ([3]; 300 mg/sq m/day for 7 days, intravenous infusion, baseline nodes 9.0×9.0 cm and 3.0×2.0 cm): decreased in size
- infraclavicular node after second course ([3]; second course three weeks later, baseline 9.0×9.0 cm): not palpable at all
- stability of diluted solution ([4]; refrigeration (2-8° C.)): 7 days
- stability of diluted solution ([4]; room temperature (15-30° C.)): 2 days
- tolerability and efficacy ([5]; HIV negative patients with advanced NHL): well tolerated and effective
- myelosuppression or immunosuppression ([5]; human, in vivo): little or no myelosuppression or immunosuppression
- blood-brain barrier passage [6]: crosses the blood-brain barrier

Structure (SMILES): CC(/C=N/NC(=N)N)=N\NC(=N)N [mitoguazone]
- response to previous treatment ([3]; same patient, before gallium nitrate): essentially unresponsive
